In article PMC10707982, “Solubility and Thermodynamics Data of Cabozantinib Malate in Various Aqueous Solutions of Dimethyl Sulfoxide at Different Temperatures” (Molecules, 2023):

Assay: Activity coefficients (γi = xidl/xe) of CBZM
Type: physicochemical
Description: The data for Tfus, ΔHfus, and ΔCp for CBZM were collected from Ref. [20], and they are 462.72 K, 56.93 kJ mol^−1, and 123.03 J mol^−1 K^−1, respectively. Now, Equation (2) was used to determine the xidl values for CBZM. The γi values for CBZM in all cosolvent combinations and pure solvents were obtained using Equation (3):(3) γi=xidl/xe

Activity coefficient (γi) (DMSO mass fraction m = 0.0, T = 298.2 K): 6703 | Activity coefficient (γi) (DMSO mass fraction m = 0.0, T = 303.2 K): 5689 | Activity coefficient (γi) (DMSO mass fraction m = 0.0, T = 308.2 K): 5044 | Activity coefficient (γi) (DMSO mass fraction m = 0.0, T = 313.2 K): 4739 | Activity coefficient (γi) (DMSO mass fraction m = 0.0, T = 318.2 K): 4597 | Activity coefficient (γi) (DMSO mass fraction m = 0.1, T = 298.2 K): 2011 | Activity coefficient (γi) (DMSO mass fraction m = 0.1, T = 303.2 K): 1712 | Activity coefficient (γi) (DMSO mass fraction m = 0.1, T = 308.2 K): 1608 | Activity coefficient (γi) (DMSO mass fraction m = 0.1, T = 313.2 K): 1542 | Activity coefficient (γi) (DMSO mass fraction m = 0.1, T = 318.2 K): 1538 | Activity coefficient (γi) (DMSO mass fraction m = 0.2, T = 298.2 K): 605.5 | Activity coefficient (γi) (DMSO mass fraction m = 0.2, T = 303.2 K): 550.8 | Activity coefficient (γi) (DMSO mass fraction m = 0.2, T = 308.2 K): 521.3 | Activity coefficient (γi) (DMSO mass fraction m = 0.2, T = 313.2 K): 517.5 | Activity coefficient (γi) (DMSO mass fraction m = 0.2, T = 318.2 K): 518.0 | Activity coefficient (γi) (DMSO mass fraction m = 0.3, T = 298.2 K): 187.7 | Activity coefficient (γi) (DMSO mass fraction m = 0.3, T = 303.2 K): 173.5 | Activity coefficient (γi) (DMSO mass fraction m = 0.3, T = 308.2 K): 167.9 | Activity coefficient (γi) (DMSO mass fraction m = 0.3, T = 313.2 K): 169.7 | Activity coefficient (γi) (DMSO mass fraction m = 0.3, T = 318.2 K): 174.4 | Activity coefficient (γi) (DMSO mass fraction m = 0.4, T = 298.2 K): 56.40 | Activity coefficient (γi) (DMSO mass fraction m = 0.4, T = 303.2 K): 55.14 | Activity coefficient (γi) (DMSO mass fraction m = 0.4, T = 308.2 K): 55.29 | Activity coefficient (γi) (DMSO mass fraction m = 0.4, T = 313.2 K): 56.55 | Activity coefficient (γi) (DMSO mass fraction m = 0.4, T = 318.2 K): 59.49 | Activity coefficient (γi) (DMSO mass fraction m = 0.5, T = 298.2 K): 17.42 | Activity coefficient (γi) (DMSO mass fraction m = 0.5, T = 303.2 K): 17.07 | Activity coefficient (γi) (DMSO mass fraction m = 0.5, T = 308.2 K): 17.69 | Activity coefficient (γi) (DMSO mass fraction m = 0.5, T = 313.2 K): 18.40 | Activity coefficient (γi) (DMSO mass fraction m = 0.5, T = 318.2 K): 19.80 | Activity coefficient (γi) (DMSO mass fraction m = 0.6, T = 298.2 K): 5.281 | Activity coefficient (γi) (DMSO mass fraction m = 0.6, T = 303.2 K): 5.524 | Activity coefficient (γi) (DMSO mass fraction m = 0.6, T = 308.2 K): 5.800 | Activity coefficient (γi) (DMSO mass fraction m = 0.6, T = 313.2 K): 6.266 | Activity coefficient (γi) (DMSO mass fraction m = 0.6, T = 318.2 K): 6.776 | Activity coefficient (γi) (DMSO mass fraction m = 0.7, T = 298.2 K): 1.609 | Activity coefficient (γi) (DMSO mass fraction m = 0.7, T = 303.2 K): 1.699 | Activity coefficient (γi) (DMSO mass fraction m = 0.7, T = 308.2 K): 1.853 | Activity coefficient (γi) (DMSO mass fraction m = 0.7, T = 313.2 K): 2.023 | Activity coefficient (γi) (DMSO mass fraction m = 0.7, T = 318.2 K): 2.267 | Activity coefficient (γi) (DMSO mass fraction m = 0.8, T = 298.2 K): 0.4851 | Activity coefficient (γi) (DMSO mass fraction m = 0.8, T = 303.2 K): 0.5430 | Activity coefficient (γi) (DMSO mass fraction m = 0.8, T = 308.2 K): 0.6120 | Activity coefficient (γi) (DMSO mass fraction m = 0.8, T = 313.2 K): 0.6808 | Activity coefficient (γi) (DMSO mass fraction m = 0.8, T = 318.2 K): 0.7771 | Activity coefficient (γi) (DMSO mass fraction m = 0.9, T = 298.2 K): 0.1392 | Activity coefficient (γi) (DMSO mass fraction m = 0.9, T = 303.2 K): 0.1658 | Activity coefficient (γi) (DMSO mass fraction m = 0.9, T = 308.2 K): 0.1932 | Activity coefficient (γi) (DMSO mass fraction m = 0.9, T = 313.2 K): 0.2245 | Activity coefficient (γi) (DMSO mass fraction m = 0.9, T = 318.2 K): 0.2572 | Activity coefficient (γi) (DMSO mass fraction m = 1.0, T = 298.2 K): 0.0455 | Activity coefficient (γi) (DMSO mass fraction m = 1.0, T = 303.2 K): 0.0547 | Activity coefficient (γi) (DMSO mass fraction m = 1.0, T = 308.2 K): 0.0646 | Activity coefficient (γi) (DMSO mass fraction m = 1.0, T = 313.2 K): 0.0771 | Activity coefficient (γi) (DMSO mass fraction m = 1.0, T = 318.2 K): 0.0894
Structure (SMILES): COc1cc2nccc(Oc3ccc(NC(=O)C4(C(=O)Nc5ccc(F)cc5)CC4)cc3)c2cc1OC [CBZM, Cabozantinib malate]
